Results reported in patent US20240383872A1, “NOVEL PYRIDINE AND PYRAZINE COMPOUNDS AS INHIBITORS OF CANNABINOID RECEPTOR 2” (HOFFMANN-LA ROCHE INC., priority 2018, published 2024).

Molecular target: human CB2 receptor (CNR2) (Homo sapiens (Human), UniProt P34972)
Assay: Radioligand binding assay, human CB2
Conditions: HEK cell membranes expressing human CNR2, [3H]-CP-55,940 radioligand
Protocol: The affinity of the compounds of the invention for cannabinoid CB1 receptors was determined using recommended amounts of membrane preparations (PerkinElmer) of human embryonic kidney (HEK) cells expressing the human CNRI or CNR2 receptors in conjunction with 1.5 or 2.6 nM [3H]-CP-55,940 (Perkin Elmer) as radioligand, respectively. Binding was performed in binding buffer (50 mM Tris, 5 mM MgCl2, 2.5 mM EDTA, and 0.5% (wt/vol) fatty acid free BSA, pH 7.4 for CB1 receptor and 50 mM Tris, 5 mM MgCl2, 2.5 mM EGTA, and 0.1% (wt/vol) fatty acid free BSA, pH 7.4 for CB2 receptor) in a total volume of 0.2 ml for 1 h at 30° C. shaking. The reaction was terminated by rapid filtration through microfiltration plates coated with 0.5% polyethylenimine (UniFilter GF/B filter plate; Packard). Bound radioactivity was analyzed for Ki using nonlinear regression analysis (Activity Base, ID Business Solution, Limited), with the Kd values for [3H]CP55,940 determined from saturation experiments. The compounds of formula (I) show an excellent affinity for the CB2 receptor.
The compounds according to formula (I) have an activity in the above assay (Ki) between 0.5 nM and 10 μM. Particular compounds of formula (I) have an activity in the above assay (Ki) between 0.5 nM and 3 μM. Other particular compounds of formula (I) have an activity in the above assay (Ki) between 0.5 nM and 100 nM.

human CB2 receptor (CNR2), sequence (P34972 whole entry): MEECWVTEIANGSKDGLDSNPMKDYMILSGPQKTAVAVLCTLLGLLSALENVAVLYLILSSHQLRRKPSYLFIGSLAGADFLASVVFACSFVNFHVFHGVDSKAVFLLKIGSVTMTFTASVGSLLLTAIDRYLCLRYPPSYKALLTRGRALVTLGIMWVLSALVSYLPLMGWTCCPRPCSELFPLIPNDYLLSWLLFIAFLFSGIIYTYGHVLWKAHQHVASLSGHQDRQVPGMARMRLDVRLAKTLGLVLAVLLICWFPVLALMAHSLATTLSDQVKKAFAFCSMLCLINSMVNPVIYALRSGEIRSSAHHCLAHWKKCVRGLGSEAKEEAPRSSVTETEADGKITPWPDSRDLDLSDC

SMILES | Ki
CC(C)C[C@@H](COCCF)NC(=O)c1ccc(N2CCCC2)c(OCC2CC2)n1 [Example 17, 6-(Cyclopropylmethoxy)-N-[(2S)-1-(2-fluoroethoxy)-4-methylpentan-2-yl]-5-(pyrrolidin-1-yl)pyridine-2-carboxamide] | 10 nM
CCC(CC)(NC(=O)c1ccc(N2CC(F)(F)C2)c(OCC2CC2)n1)C(=O)OCF [Example 4, Fluoromethyl 2-{[6-(cyclopropylmethoxy)-5-(3,3-difluoroazetidin-1-yl)pyridine-2-carbonyl]amino}-2-ethylbutanoate] | 6 nM
CC(C)C[C@H](NC(=O)c1ccc(N2CCCC2)c(OCC2CC2)n1)C(=O)OCF [Example 13, Fluoromethyl N-[6-(cyclopropylmethoxy)-5-(pyrrolidin-1-yl)pyridine-2-carbonyl]-L-leucinate] | 63 nM
CCC(CC)(NC(=O)c1ccc(N2CCCC2)c(OCC2CC2)n1)C(=O)OCCCF [Example 7, 3-Fluoropropyl 2-{[6-(cyclopropylmethoxy)-5-(pyrrolidin-1-yl)pyridine-2-carbonyl]amino}-2-ethylbutanoate] | 5 nM
COC1CN(c2ccc(C(=O)N[C@H](COCCCF)C(C)C)nc2OCC2CC2)C1 [Example 31, 6-(Cyclopropylmethoxy)-N-[(2S)-1-(3-fluoropropoxy)-3-methylbutan-2-yl]-5-(3-methoxyazetidin-1-yl) pyridine-2-carboxamide] | 247 nM
CC(C)[C@@H](COCCCF)NC(=O)c1ccc(N2CCCC2)c(OCC2CC2)n1 [Example 21, 6-(Cyclopropylmethoxy)-N-[(2S)-1-(3-fluoropropoxy)-3-methylbutan-2-yl]-5-(pyrrolidin-1-yl)pyridine-2-carboxamide] | 156 nM
